Assays:
Format in all cases: biochemical
GST-PLK2 = target: T1, GST-PLK2 (Homo sapiens, UniProt Q9NYY3); assay: PLK TR-FRET peptide assay, PLK2; conditions: for IC50: PLK TR-FRET peptide assay, GST-PLK2, read-out: Plk2 IC50; for PLK2 activity relative to the opposite enantiomer / other isomer: comparison of resolved enantiomers, used to assign absolute configuration
T1 construct: purchased CarnaBio

GST-PLK1 = GST-PLK1 (Homo sapiens, UniProt P53350); assay: PLK TR-FRET peptide assay, PLK1; conditions: read-out: Plk1 IC50
GST-PLK3 = target: T2, GST-PLK3 (Homo sapiens, UniProt Q9H4B4); assay: PLK TR-FRET peptide assay, PLK3; conditions: PLK TR-FRET peptide assay, GST-PLK3; read-out: Plk3 IC50
T2 construct: purchased CarnaBio
T2 sequence (Q9H4B4 whole entry): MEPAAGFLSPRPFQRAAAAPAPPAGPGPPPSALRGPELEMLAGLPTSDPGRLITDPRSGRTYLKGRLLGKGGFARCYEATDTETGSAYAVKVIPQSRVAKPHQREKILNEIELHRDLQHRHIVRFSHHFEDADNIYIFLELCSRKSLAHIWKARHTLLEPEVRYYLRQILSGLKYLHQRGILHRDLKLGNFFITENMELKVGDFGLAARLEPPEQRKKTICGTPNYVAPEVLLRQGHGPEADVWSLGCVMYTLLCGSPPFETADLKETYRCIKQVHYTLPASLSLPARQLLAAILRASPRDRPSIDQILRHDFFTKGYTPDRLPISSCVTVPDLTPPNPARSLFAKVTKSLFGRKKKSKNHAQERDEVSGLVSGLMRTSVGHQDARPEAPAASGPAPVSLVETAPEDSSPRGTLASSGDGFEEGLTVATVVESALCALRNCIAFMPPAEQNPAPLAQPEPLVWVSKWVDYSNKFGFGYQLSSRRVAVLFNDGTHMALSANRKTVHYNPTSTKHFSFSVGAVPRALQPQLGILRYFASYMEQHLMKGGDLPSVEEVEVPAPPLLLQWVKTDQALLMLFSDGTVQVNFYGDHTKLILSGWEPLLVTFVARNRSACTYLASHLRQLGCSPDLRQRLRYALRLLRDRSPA

T1 sequence (Q9NYY3 whole entry): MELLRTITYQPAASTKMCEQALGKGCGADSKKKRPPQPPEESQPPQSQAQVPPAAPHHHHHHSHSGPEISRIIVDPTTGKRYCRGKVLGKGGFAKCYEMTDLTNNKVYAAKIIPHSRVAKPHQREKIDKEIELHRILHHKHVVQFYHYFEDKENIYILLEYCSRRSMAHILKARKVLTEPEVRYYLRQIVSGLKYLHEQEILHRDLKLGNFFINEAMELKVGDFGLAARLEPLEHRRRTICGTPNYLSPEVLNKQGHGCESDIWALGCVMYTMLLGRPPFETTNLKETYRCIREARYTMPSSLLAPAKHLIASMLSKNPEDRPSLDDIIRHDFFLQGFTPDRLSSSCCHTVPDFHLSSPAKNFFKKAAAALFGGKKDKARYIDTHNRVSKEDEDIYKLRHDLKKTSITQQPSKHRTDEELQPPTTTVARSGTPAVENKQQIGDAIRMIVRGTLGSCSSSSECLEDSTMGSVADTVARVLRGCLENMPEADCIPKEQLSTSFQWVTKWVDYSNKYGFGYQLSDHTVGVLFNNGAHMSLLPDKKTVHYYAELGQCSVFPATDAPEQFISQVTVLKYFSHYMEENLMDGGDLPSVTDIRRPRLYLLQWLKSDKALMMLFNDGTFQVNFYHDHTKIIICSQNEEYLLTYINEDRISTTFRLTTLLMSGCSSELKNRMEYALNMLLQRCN
GST-PLK1, sequence (P53350 whole entry): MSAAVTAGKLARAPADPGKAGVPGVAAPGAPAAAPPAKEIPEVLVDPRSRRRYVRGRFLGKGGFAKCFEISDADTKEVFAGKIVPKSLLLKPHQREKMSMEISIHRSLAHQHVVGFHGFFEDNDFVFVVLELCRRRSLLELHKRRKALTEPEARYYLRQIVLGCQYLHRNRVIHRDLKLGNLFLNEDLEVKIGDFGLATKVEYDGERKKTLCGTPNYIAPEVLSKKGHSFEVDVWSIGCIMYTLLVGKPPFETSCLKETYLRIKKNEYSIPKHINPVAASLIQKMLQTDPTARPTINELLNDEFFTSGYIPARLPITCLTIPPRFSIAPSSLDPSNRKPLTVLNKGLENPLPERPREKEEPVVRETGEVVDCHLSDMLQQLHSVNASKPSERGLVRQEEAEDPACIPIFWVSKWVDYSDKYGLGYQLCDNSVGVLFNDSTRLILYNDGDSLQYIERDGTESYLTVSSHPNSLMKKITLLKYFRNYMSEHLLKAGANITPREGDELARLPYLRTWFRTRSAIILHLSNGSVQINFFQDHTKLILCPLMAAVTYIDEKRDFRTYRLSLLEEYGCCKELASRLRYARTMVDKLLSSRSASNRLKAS

| Structure (SMILES) | IC50 (GST-PLK2) [nM] | IC50 (GST-PLK1) [µM] | IC50 (GST-PLK3) [µM] | PLK2 activity relative to the opposite enantiomer / other isomer (GST-PLK2) |
| --- | --- | --- | --- | --- |
| CC[C@@H]1C(=O)N(C)c2cnc(-n3cnc(C)c3)nc2N1C1CCCC1 [Example 55, (R)-8-cyclopentyl-7-ethyl-5-methyl-2-(4-methyl-1H-imidazol-1-yl)-7,8-dihydropteridin-6(5H)-one] | < 1000 | < 1 | 10 to 50 | – |
| CC[C@]12COCCN1c1nc(-c3snnc3-c3ccc(F)cn3)ncc1N(C)C2=O [Example 416, (R)-6a-ethyl-2-(4-(5-fluoropyridin-2-yl)-1,2,3-thiadiazol-5-yl)-5-methyl-6a,7,9,10-tetrahydro-[1,4]oxazino[3,4-h]pteridin-6(5H)-one] | 10000 to 50000 | > 50 | > 50 | – |
| CC[C@]12COCCN1c1nc(-n3ccnc3-c3ccccc3)ncc1N(C)C2=O (single isomer, unassigned) [Example 315] | 10000 to 50000 | > 50 | > 50 | – |
| CC[C@@H]1C(=O)N(C)c2cnc(-n3cc(C(=O)N(C)C)cn3)nc2N1C1CCCC1 [Example 39, (R)-1-(8-cyclopentyl-7-ethyl-5-methyl-6-oxo-5,6,7,8-tetrahydropteridin-2-yl)-N,N-dimethyl-1H-pyrazole-4-carboxamide] | 1000 to 10000 | 1 to 10 | 10 to 50 | – |
| CC[C@]12COCCN1c1nc(-n3ccnc3-c3ccc(F)cc3F)ncc1N(C)C2=O [Example 377, (R)-2-(2-(2,4-difluorophenyl)-1H-imidazol-1-yl)-6a-ethyl-5-methyl-6a,7,9,10-tetrahydro-[1,4]oxazino[3,4-h]pteridin-6(5H)-one] | 10000 to 50000 | > 50 | > 50 | – |
| CC[C@@]12CCCN1c1nc(-n3ccnc3-c3ccccn3)ncc1N(C)C2=O [Example 145, (S)-6a-ethyl-5-methyl-2-(2-(pyridin-2-yl)-1H-imidazol-1-yl)-6a,7,8,9-tetrahydropyrrolo[2,1-h]pteridin-6(5H)-one] | 1000 to 10000 | 10 to 50 | 10 to 50 | – |
| CC[C@]12COCCN1c1nc(-n3ccnc3-c3nccs3)ncc1N(C)C2=O [Example 386, (R)-6a-ethyl-5-methyl-2-(2-(thiazol-2-yl)-1H-imidazol-1-yl)-6a,7,9,10-tetrahydro-[1,4]oxazino[3,4-h]pteridin-6(5H)-one] | > 50000 | > 50 | > 50 | – |
| CN1C(=O)C23C=CC(CC2)N3c2nc(-n3ccnc3-c3ccccc3)ncc21 (stereo not drawn) [Example 326, 5-methyl-2-(2-phenyl-1H-imidazol-1-yl)-9H-6a,9-ethanopyrrolo[2,1-h]pteridin-6(5H)-one] | 1000 to 10000 | > 50 | > 50 | – |
| CC[C@]12COCCN1c1nc(-c3cn[nH]c3-c3ccc(F)cc3F)ncc1N(C)C2=O [Example 412, (R)-2-(5-(2,4-difluorophenyl)-1H-pyrazol-4-yl)-6a-ethyl-5-methyl-6a,7,9,10-tetrahydro-[1,4]oxazino[3,4-h]pteridin-6(5H)-one] | 1000 to 10000 | > 50 | > 50 | – |
| CN1C(=O)C23CCC(CC2)N3c2nc(-n3ccnc3-c3ccccc3)ncc21 [Example 308, 5-methyl-2-(2-phenyl-1H-imidazol-1-yl)-8,9-dihydro-7H-6a,9-ethanopyrrolo[2,1-h]pteridin-6(5H)-one] | 1000 to 10000 | 10 to 50 | > 50 | – |
| CC[C@]12COCCN1c1nc(-c3cn[nH]c3-c3nccs3)ncc1N(C)C2=O [Example 345, (R)-6a-ethyl-5-methyl-2-(5-(thiazol-2-yl)-1H-pyrazol-4-yl)-6a,7,9,10-tetrahydro-[1,4]oxazino[3,4-h]pteridin-6(5H)-one] | 10000 to 50000 | > 50 | > 50 | – |
| CC[C@@H]1C(=O)N(C)c2cnc(-n3cc(C(=O)N4CCOCC4)cn3)nc2N1C1CCCC1 [Example 41, (R)-8-cyclopentyl-7-ethyl-5-methyl-2-(4-(morpholine-4-carbonyl)-1H-pyrazol-1-yl)-7,8-dihydropteridin-6(5H)-one] | 1000 to 10000 | 1 to 10 | 10 to 50 | – |
| CC[C@]12COCCN1c1nc(-c3cccnc3-c3ccccc3)ncc1N(C)C2=O [Example 404] | > 50000 | > 50 | > 50 | – |
| CCC1C(=O)N(C)c2cnc(-n3ccnc3-c3ccc(F)cc3)nc2N1c1ccccc1 (stereo not drawn) [Example 291, 7-ethyl-2-(2-(4-fluorophenyl)-1H-imidazol-1-yl)-5-methyl-8-phenyl-7,8-dihydropteridin-6(5H)-one] | < 1000 | 1 to 10 | 1 to 10 | – |
| CC[C@@H]1C(=O)N(C)c2cnc(-n3ccnc3-c3ncccn3)nc2N1C1CCC1 [Example 183, (R)-8-cyclobutyl-7-ethyl-5-methyl-2-(2-(pyrimidin-2-yl)-1H-imidazol-1-yl)-7,8-dihydropteridin-6(5H)-one] | < 1000 | 1 to 10 | 10 to 50 | – |

The remaining lines, values ahead:

| IC50 (GST-PLK2) [nM] | IC50 (GST-PLK1) [µM] | IC50 (GST-PLK3) [µM] | PLK2 activity relative to the opposite enantiomer / other isomer (GST-PLK2) | Structure (SMILES) |
| --- | --- | --- | --- | --- |
| < 1000 | 10 to 50 | > 50 | – | CC[C@@H]1C(=O)N(C)c2cnc(-n3ccnc3-c3cccnn3)nc2N1C(C)C [Example 152, (R)-7-ethyl-8-isopropyl-5-methyl-2-(2-(pyridazin-3-yl)-1H-imidazol-1-yl)-7,8-dihydropteridin-6(5H)-one] |
| < 1000 | < 1 | < 1 | – | CC[C@@H]1C(=O)N(C)c2cnc(-c3cn[nH]c3-c3ccccn3)nc2N1C1CCCC1 [Example 306, (R)-8-cyclopentyl-7-ethyl-5-methyl-2-(5-(pyridin-2-yl)-1H-pyrazol-4-yl)-7,8-dihydropteridin-6(5H)-one] |
| < 1000 | 1 to 10 | 10 to 50 | – | CC[C@@H]1C(=O)N(C)c2cnc(-n3ccnc3N3CCOC3=O)nc2N1C1CCCC1 [Example 78, (R)-3-(1-(8-cyclopentyl-7-ethyl-5-methyl-6-oxo-5,6,7,8-tetrahydropteridin-2-yl)-1H-imidazol-2-yl)oxazolidin-2-one] |
| < 1000 | 1 to 10 | 1 to 10 | – | CC[C@@H]1C(=O)N(C)c2cnc(-c3scnc3-c3ccc(F)cc3)nc2N1C(C)C [Example 319, (R)-7-ethyl-2-(4-(4-fluorophenyl)thiazol-5-yl)-8-isopropyl-5-methyl-7,8-dihydropteridin-6(5H)-one] |
| < 1000 | 10 to 50 | 10 to 50 | – | CC[C@@]12COCCN1c1nc(-c3cnoc3-c3ccccc3)ncc1N(C)C2=O [Example 413, (S)-6a-ethyl-5-methyl-2-(5-phenylisoxazol-4-yl)-6a,7,9,10-tetrahydro-[1,4]oxazino[3,4-h]pteridin-6(5H)-one] |
| < 1000 | 1 to 10 | 10 to 50 | – | CC[C@@H]1C(=O)N(C)c2cnc(-n3cnc(C(=O)N4CCOCC4)c3)nc2N1C1CCCC1 [Example 45, (R)-8-cyclopentyl-7-ethyl-5-methyl-2-(4-(morpholine-4-carbonyl)-1H-imidazol-1-yl)-7,8-dihydropteridin-6(5H)-one] |
| < 1000 | < 1 | < 1 | – | CC[C@@H]1C(=O)N(C)c2cnc(-n3ccnc3-c3ccncc3)nc2N1C1CCCC1 [Example 83, (R)-8-cyclopentyl-7-ethyl-5-methyl-2-(2-(pyridin-4-yl)-1H-imidazol-1-yl)-7,8-dihydropteridin-6(5H)-one] |
| < 1000 | 1 to 10 | 10 to 50 | – | CC[C@@H]1C(=O)N(C)c2cnc(-n3ccnc3-c3ncccn3)nc2N1C(C)C [Example 148, (R)-7-ethyl-8-isopropyl-5-methyl-2-(2-(pyrimidin-2-yl)-1H-imidazol-1-yl)-7,8-dihydropteridin-6(5H)-one] |
| < 1000 | 1 to 10 | 1 to 10 | more active compound | CC[C@@]12COCCN1c1nc(-c3ccncc3-c3ccccc3)ncc1N(C)C2=O [Example 394, (S)-6a-ethyl-5-methyl-2-(3-phenylpyridin-4-yl)-6a,7,9,10-tetrahydro-[1,4]oxazino[3,4-h]pteridin-6(5H)-one] |
| < 1000 | 1 to 10 | 1 to 10 | – | CC[C@@H]1C(=O)N(C)c2cnc(-n3ccnc3-c3ccncc3)nc2N1C1CCOCC1 [Example 100, (R)-7-ethyl-5-methyl-2-(2-(pyridin-4-yl)-1H-imidazol-1-yl)-8-(tetrahydro-2H-pyran-4-yl)-7,8-dihydropteridin-6(5H)-one] |
| < 1000 | > 50 | > 50 | more active compound | CC[C@@]12COCCN1c1nc(-n3ccnc3-c3ccc(F)cn3)ncc1N(C)C2=O [Example 380, (S)-6a-ethyl-2-(2-(5-fluoropyridin-2-yl)-1H-imidazol-1-yl)-5-methyl-6a,7,9,10-tetrahydro-[1,4]oxazino[3,4-h]pteridin-6(5H)-one] |
| < 1000 | < 1 | < 1 | – | CC[C@@H]1C(=O)N(C)c2cnc(-c3cnncc3-c3ccccc3)nc2N1C1CCCC1 [Example 139, (R)-8-cyclopentyl-7-ethyl-5-methyl-2-(5-phenylpyridazin-4-yl)-7,8-dihydropteridin-6(5H)-one] |
| < 1000 | > 50 | 1 to 10 | more active compound | CC[C@@]12COCCN1c1nc(-c3snnc3-c3ccccc3)ncc1N(C)C2=O [Example 368, (S)-6a-ethyl-5-methyl-2-(4-phenyl-1,2,3-thiadiazol-5-yl)-6a,7,9,10-tetrahydro-[1,4]oxazino[3,4-h]pteridin-6(5H)-one] |
| < 1000 | 1 to 10 | > 50 | – | CC[C@@H]1C(=O)N(C)c2cnc(-n3ccc(C(=O)NC)n3)nc2N1C1CCCC1 [Example 58, (R)-1-(8-cyclopentyl-7-ethyl-5-methyl-6-oxo-5,6,7,8-tetrahydropteridin-2-yl)-N-methyl-1H-pyrazole-3-carboxamide] |

Reference: patent publication US8445503B2, “Inhibitors of polo-like kinase” (Elan Pharmaceuticals, Inc., priority 2009, dated 2013)
